According to patent publication US10995117B2, “Peptide for skin regeneration or wound treatment and use thereof” (KINE SCIENCES CO., LTD., priority 2016, dated 2021):

Experiments:
HaCaT cells = experiment: Scratch assay, in vitro wound healing model; type: cell-based, human; settings: for wound size (quantified) / migration of HaCaT cells: peptide 1 or 10 ng/ml; for migration of HaCaT cells: Mitomycin C pretreated
Method: In Example 5, the wound treatment effect according to the treatment of the peptides (peptides 1 and 2) prepared in Example 1 was confirmed through a scratch assay. A human epithelial cell line, HaCaT cells was cultured for 2 hours by adding Mitomycin C (10 ug/ml) in a serum-free medium to […]. After the cells were treated with the peptide (1 or 10 ng/ml) and TGF-β (1 ng/ml) as a positive control group in a medium added with 10% FBS, the migration ability of cells was observed over time and the reduction in wound size was quantified.

Balb/c nude mouse [1] = experiment: Acute wound animal model, change in wound size; type: in vivo; settings: 10 mm punch wound, 500 ng/one time, 5 times at 24-hour intervals, 14 days
Method: (§1) After an 8-week-old Balb/c nude mouse was anesthetized with Avertin (2.5%), the skin of the animal's back was cut by using a circular punch having a 10 mm diameter to induce an acute wound. The peptide was treated (500 ng/one time) at the site of excision total 5 times at 24-hour intervals at the site of excision and reduction of the wound area over time was measured for 14 days and an EGF was used as a positive control group (10 ug/one time). In this case, the peptide was treated with 20% pluronic F-127 (PBS) in a mixture state and the wound sizes over time were measured and digitized using a digital camera and an ImageJ program and compared with each other.

Balb/c nude mouse [2] = experiment: Acute wound animal model, histological change (H&E staining); type: in vivo; settings: skin tissue on day 5 after acute wound
Method: as §1
An acute wound was induced in the same manner as in Example 6-1, and the skin tissue was cut on 5 day after the acute wound was induced to prepare tissue fragments. Thereafter, histological changes according to peptide treatment were observed by H&E staining and observing the H&E staining by a microscope. Meanwhile, an EGF was used as a positive control group.

B16F10 cells = experiment: Melanin production of melanoma cell line; type: cell-based; settings: 24 hours
Method: The color of the skin is determined by an amount of melanin pigment produced by melanoma cells, and many studies have been conducted to improve abnormal pigmentation of the skin. Particularly, excessive pigmentation caused by chronic gashes is considered as a major medical problem, but no definitive treatment method has yet been developed. Thus, in Example 2, the production ability of melanin of a melanoma cell line according to the treatment of the peptide (peptide 1) prepared in Example 1 was evaluated by an experimental method disclosed in the existing document (Life Sci. 2013 Aug. 14; 93(5-6):226-32). The melanoma cell line, B16F10 cells, was cultured in a DMEM medium added with 10% fetal bovine […], and the cultured cells were divided into a 12 well-plate at a concentration of 1×10^5 cells/well. After the culture for 24 hours, α-MSH (10 uM) promoting melanin synthesis and the peptide (1, 10, and 100 ng/ml) of the present invention were treated and cultured again for 24 hours, added with 200 μl of a 1N NaOH solution after washing each well with PBS, and then dissolved at 100° C. for 30 minutes. Thereafter, the absorbance was measured at 405 nm with an ELISA reader to confirm the amount of melanin produced from the melanoma cell line. Meanwhile, an untreated group was used as a control group and a α-MSH-treated group was used as a positive control group.

tyrosinase = target: T1, tyrosinase (Mus musculus, UniProt P11344); experiment: Tyrosinase activity of melanoma cell line (L-DOPA); type: cell-based; settings: 24 hours
T1 construct: endogenous in cells; host or cells: B16F10 melanoma cells stimulated with alpha-MSH; Triton X-100 lysate supernatant
T1 sequence (P11344 19-533): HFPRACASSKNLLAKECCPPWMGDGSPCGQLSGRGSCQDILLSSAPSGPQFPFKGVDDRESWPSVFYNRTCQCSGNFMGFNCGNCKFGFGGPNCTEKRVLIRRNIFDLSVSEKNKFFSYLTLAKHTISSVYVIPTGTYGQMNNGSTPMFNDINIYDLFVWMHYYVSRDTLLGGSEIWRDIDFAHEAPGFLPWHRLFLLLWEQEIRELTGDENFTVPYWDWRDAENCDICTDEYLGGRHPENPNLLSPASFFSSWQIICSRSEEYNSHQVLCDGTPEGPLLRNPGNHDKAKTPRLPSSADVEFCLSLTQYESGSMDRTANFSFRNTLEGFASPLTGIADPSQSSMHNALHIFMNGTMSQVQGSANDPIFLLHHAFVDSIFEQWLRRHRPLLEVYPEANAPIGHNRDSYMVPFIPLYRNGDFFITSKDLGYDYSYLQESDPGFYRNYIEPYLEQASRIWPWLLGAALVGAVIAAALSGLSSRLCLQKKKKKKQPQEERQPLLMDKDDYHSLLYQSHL
Method: Tyrosinase as a rate-regulating enzyme that catalyzes the reaction in the melanin biosynthesis process was known to play a crucial role in regulating the amount of melanin in the cells. Thus, in Example 4, the tyrosinase activity of the melanoma cell line according to the treatment of the peptide (peptide 1) prepared in Example 1 was evaluated by an experimental method disclosed in the existing document (J. Dermatol. Sci. Vol. 57 (2010) 170-177). The melanoma cell line, B16F10 cells, was divided into a 12 well-plate at a concentration of 1×10^5 cells/well and cultured for 24 hours, and then treated with α-MSH ([…]) and the peptide of the present invention (1, 10, 100 ng/ml), cultured for 24 hours again, and then was washed with PBS and suspended in a 50 mM phosphate buffer (pH 6.8) containing 1% Triton X-100 after washing each well with PBS. After vortexing, the cells was frozen at […] for 30 minutes, dissolved at room temperature, and centrifuged at 1000 g for 10 minutes, and then 40 μl of a supernatant and 100 μl of 10 mM L-DOPA were added to a 96 well-plate and reacted at 37° C. Thereafter, the absorbance was measured at 405 nm with an ELISA reader to confirm the tyrosinase activity of the melanoma cell line. Meanwhile, a separate untreated group was used as a control group and a α-MSH-treated group and a Kojic acid-treated group were used as a positive control group.

human dermal fibroblasts = experiment: Procollagen secretion of human dermal fibroblasts (PIP EIA Kit); type: cell-based; settings: peptide 100, 10, 1 ng/ml, versus control group and TGF-treated group
Method: (§2) Collagen is a main ingredient of skin connective tissues, and increased collagen expression is essential in wound healing such as a gash or skin regeneration. As a result, in Example 2, the production ability of collagen of human dermal fibroblasts (HDF) according to the treatment of the peptide (peptide 1) prepared in Example 1 was evaluated by an experimental method disclosed in the existing document (J. Biol. Chem. 1993 268(14): 9941-9944). First, the human dermal fibroblasts were cultured in a DMEM medium added with 10% fetal bovine […] (FBS), and the cultured cells were divided into a 6-well plate at a concentration of 2×10^5 cell/well and cultured for 24 hours, and then the medium was replaced with 2% FBS. After 24 hours from this, the cells were treated with the peptide (100, 10, 1 ng/ml) of the present invention, and thereafter, an amount of procollagen secreted to the culture medium was measured by using a Procollagen Type I C-peptide (PIP) EIA Kit, RNA was extracted with a Trizol reagent, and then the expression of Col1A1 (collagen type I, alpha 1) mRNA of the human dermal fibroblasts was confirmed through real-time PCR. Meanwhile, a separately untreated group (Control) was used as a control group and a TGF-treated group (TGF-) was used as a positive control group.

[3] = test system: Col1A1 (collagen type I, alpha 1) mRNA; experiment: Col1A1 mRNA expression of human dermal fibroblasts (real-time PCR); type: cell-based; settings: at a concentration of 10 ng/ml or more
Method: as §2

Substance | wound reduction effect at low concentration (HaCaT cells; HaCaT cells, 1 ng/ml) | wound size effect compared with peptide 1 (HaCaT cells; HaCaT cells, 1 or 10 ng/ml) | wound size (quantified) (HaCaT cells; HaCaT cells) | migration of HaCaT cells (HaCaT cells) | wound treatment effect compared with peptide 1 (Balb/c nude mouse [1]) | epithelialization (Balb/c nude mouse [2]) | thicknesses of epidermis and dermis layers (Balb/c nude mouse [2]) | amount of melanin produced (B16F10 cells; α-MSH (10 uM) alone) | tyrosinase activity of the melanoma cell line (tyrosinase; B16F10 cells) | secretion amount of procollagen (human dermal fibroblasts) | expression of Col1A1 [3] | production amount of melanin (B16F10 cells; α-MSH (10 uM) plus peptide 1, 10, 100 ng/ml, no significant difference from non-α-MSH-treated group) | tyrosinase activity of the melanoma cell line (tyrosinase; B16F10 cells, 10, 100 ng/ml, no significant difference from Kojic acid-treated group)
REGRTREGRT (peptide 2) | definite wound reduction effect | more remarkable | significant reduction | increased in a peptide concentration-dependent manner | excellent effect as compared to the case treated with the peptide 1 | actively progressed | larger than those of a PBS negative control group |  |  |  |  |  | 
α-MSH [reference compound] |  |  |  |  |  |  |  | a large amount of melanin was produced | greatly increased |  |  |  | 
REGRT (peptide 1) |  |  | significant reduction | increased in a peptide concentration-dependent manner |  | actively progressed | larger than those of a PBS negative control group |  |  | increased compared to the control group and the TGF-treated group | significantly increased | greatly reduced | greatly reduced
